Measured values from US20250144187A1, “COMBINATION OF HYDROLASES AND ANTI-MICROORGANISM DRUGS AND USES THEREOF” (CENTRE FOR EYE AND VISION RESEARCH LIMITED, priority 2023, published 2025).
Values joined by “and” are separate entries in the source; they are usually repeats but may differ in a detail not shown here. Equal values may be shown once.

Assays:
[1] = test system: MRSA; assay: Check board broth micro-dilution assay, tedizolid phosphate with lysozyme; format: cell-based, Staphylococcus aureus
Experimental: (§1) 2) Check board broth micro-dilution assays. According to standard two-fold dilution method [Sun. H et al., Nat. Commun. 11, 5263 (2020) tedizolid phosphate at different concentrations were added into fresh LB medium (or trypticase soy troth medium with 5% defibrinated horse blood) containing different concentrations of human lysozyme in 96-well plate. Then, 20 μl of 1.0×10^7 CFU/ml logarithmic cultures of MRSA or MRSE were added into each well of the plate and co-incubated overnight. Drug-free LB medium in the absence or presence of bacteria served as background control and growth control group, respectively. […] Thus, there would be a series of FICI values. In most of cases, the lowest one among these values was listed to reflect the best achieving degree of combination therapy. In terms of the lowest FICI, FICI≤0.5, 0.5<FICI<1 or FICI≥1, would indicate the combination has synergy, part synergy or non-synergy effects, respectively.

[2] = test system: ARPE-19 cells; assay: Toxicity analysis of auranofin by CCK-8 kit; format: cell-based, human; conditions: uninfected cells
Source text: FIG. 10: Toxicity analysis of auranofin on ARPE-19 cells by using CCK-8 kit.

[3] = test system: MRSA; assay: Time-killing curves, auranofin/lysozyme; format: cell-based, Staphylococcus aureus; conditions: for inhibition effect on growth of MRSA at exponential phase: drug alone: 0.34 μg/ml auranofin or 0.5 mg/ml lysozyme
Experimental: 2) Time-killing curves According to standard method [K. R. V. Thappeta et al., (2020) ACS Infect Dis 6: 1228-1237], over-night cultured MRSA was diluted and aliquoted into new sterile tubes at 1:1000 ratio. Then, the bacterial suspension was co-cultured with […] auranofin, 0.5 mg/ml lysozyme or their combination at 37° C. with shaking at 200 rpm. Similar bacterial suspension without any additions served as control group. Then, 20 μl of each culture was extracted at time intervals of […] and 22 hours to determine CFUs by spotting 10 μl of 10-fold dilution on the LB agar plates and incubating at 37° C. for 24 hours prior to enumeration. All assays were performed in triplicate.

[4] = test system: MRSA; assay: ATP level, auranofin/lysozyme; format: cell-based, Staphylococcus aureus; conditions: 0.5 mg/ml lysozyme and 0.34 μg/ml auranofin
Experimental: 8) ATP level. […] Those without any treatment served as control group. Alter 1 hour incubation at 37° C. all bacteria were collected and washed by cold PBS for 3 times. […] Then, 20 μl of each supernatant were added white 96-well plate pre-reactivated by 100 μl of ATP test solution (Beyotime) to perform luminometer measurement.

[5] = test system: MRSA; assay: TMT proteomics analysis and PRM validation, auranofin/lysozyme; conditions: auranofin + lysozyme combination vs lysozyme alone, 5 hours
[6] = test system: MRSA biofilm; assay: Biofilm crystal violet assay, auranofin/lysozyme; format: cell-based, Staphylococcus aureus
Experimental: 3) Biofilm assays According to described previously method [K. R. V. Thappeta et al., (2020) ACS infect Dis 6: 1228-1237], biofilm inhibition was assessed by using an adherence assay on 96-well tissue culture plates. Briefly, bacterial suspensions (1×10^6 (CFU/ml) were exposed to 0.34 μg/ml auranofin in LB medium in the absence and presence of 0.5 mg/ml lysozyme. LB medium with or without bacteria served as […] control group, respectively. After overnight incubation at 37° C. bacterial suspensions were removed, and the wells were gently washed twice with sterile PBS to remove exclusively non-adherent bacteria. The adherent biofilms were fixed by using 95% methanol at 60° C. for 15 minutes. Then, biofilms were stained with 1% crystal violet (100 μl/well) at 37° C. for 15 minutes, followed by gently washing with PBS to remove redundant crystal violet. Finally, the dye was solubilized with 150 μl of 95% ethanol per well at 37° C. for 30 minutes. The optical density of solution in each well was measured at 590 nm using a micro-plate reader. Herein, strong biofilm, weak biofilm and no biofilm wen defined as “ODsample≥2 ODnegative control”, “ODnegative control<ODsample<2 ODnegative control” and “ODsample≤ODnegative control”, respectively. All assays were performed in triplicate.

[7] = test system: MRSA; assay: Mutation frequency and prevention concentration analysis, auranofin/lysozyme; format: cell-based, Staphylococcus aureus
Source text: 5) Mutation frequency and prevention concentration analysis.

[8] = test system: MRSA in ARPE-19 cells; assay: Cell-based infection model, auranofin/lysozyme; conditions: ≥0.34 μg/ml auranofin combined with 0.5 mg/ml lysozyme
[9] = test system: MRSA; assay: Resistance development study (serial passages), auranofin/lysozyme; format: cell-based, Staphylococcus aureus; conditions: combination with lysozyme compared with auranofin alone
Experimental: 4) Resistance development study. As described before [Y, Lau et al., (2020) Adv Sci 7:1902227]. MRSA at exponential phase was diluted (1:1000) into fresh LB medium containing different concentrations of auranofin, lysozyme or their combination. After 1 passage (24 hours) at 37° C., MIC of culture was determined by standard two-fold serial dilutions. Next, this culture with higher MIC was further diluted into similar LB medium but with higher concentrations of compounds for next passages. The process was repeated for 18 days. By analyzing initial MICs of auranofin or lysozyme, fold-changes in MI s of these compounds were calculated. Assays were performed in triplicate.

[10] = test system: methicillin-resistant Staphylococcus aureus USA 300 (MRSA, ATCC-BAA1556); assay: Check board broth micro-dilution assay, auranofin with human lysozyme; format: cell-based
Experimental: Then, about 5.0×10^5 colony-forming units (CFUs) of methicillin-resistant Staphylococcus aures (MRSA, USA300 strain) in log phase were added into each well for overnight culture. Bacterial growth inhibition was monitored by optical density at 600 nm (OD600) and colony units in serial dilution in LB agar plate. Well without any drug served as growth control, and well without bacteria served as background control. The inhibition ratio was calculated as […]. CFUs were counted by 10-fold serial dilution in phosphate buffered saline (PBS) and 10 μl of dilutions were spotted in LB agar plate. […] Briefly, FICI=MICAB/MICA+MICBA/MICB=FICA+FICB. […] Thus, there would be a series of FICI values. In most of cases, the lowest one among these values was listed to reflect the best achieving degree of combination therapy. In terms of the lowest FICI, FICI≤0.5, 0.5<FICI<1 or FICI≥1, would indicate whether the combination has synergy, part synergy or non-synergy effects, respectively. Besides, to better highlight the inhibition degree of bacterial growth in combination therapy or identify whether combination therapy has synergy effect, results might be shown by heat-maps or line-charts containing different FICI values, although they were performed by using same 2-fold dilution method. All assays were performed in triplicate.

[11] = test system: MRSA; assay: Check board broth micro-dilution assay, cefdinir with lysozyme; format: cell-based, Staphylococcus aureus; conditions: for effect of LTA/WTA synthesis inhibitor on cefdinir/lysozyme combination (FICI): inhibitor added into bacterial suspension
Experimental: 2) Check board broth micro-dilution assays. According to standard two-fold dilution method [Sun H et al., Nat Commun 11, 5263 (2020)], cefdinir at different concentration was added into fresh LB medium (or trypticase soy broth medium with 5% defibrinated horse blood) containing different concentration of human lysozyme in 96-wells plate. After well mixed, about 20 μl of 1.0×10^7 CFU/ml logarithmic cultures of MRSA, MRSE, Streptococcus pyogenes (S. py), Streptococcus mutans (S. mu), Enterococcus faecium (E. faecium), Enterococcus faecalis (E. faecalis) and Corynebacterium pseudodiphtheriticum (C. ps) were added into each well of the plate und co-incubated overnight, Wells without any drugs served as growth controls, and wells without bacteria served as background controls. The inhibition ratio was calculated as [1−(ODsample−ODbackground)/(ODcontrol−ODbackground)]×100%. Besides, bacterial growth inhibition was also monitored by serial dilution in LB-agar plate. CFU was counted by performing 10-fold serial dilution in PBS and then spotting 10 μl of dilutions in LB-agar plate. The MIC was determined as the lowest concentration of a drug that could inhibit the […] growth of microorganism by both visual CFU and OD600 using a microtiter plate reader. Fractional inhibitory concentration (FIC) and fractional inhibitory concentration index (FICI) values were determined by standard method. Briefly, FICI=MICAB/MICA+MICBA/MICB=FICA+FICB. […] Thus, there would be a series of FICI values. In most of Cases the lowest one among these values was listed to reflect the best achieving degree of combination therapy. In terms of the lowest FICI, FICI≤0.5, 0.5<FICI<1 or FICI≥1, would indicate the combination has synergy, part synergy or non-synergy effects, respectively.

[12] = test system: MRSE; assay: as above; format: cell-based, Staphylococcus epidermidis; conditions: lysozyme alone
Experimental: 2) Check board broth micro-dilution assays. According to standard two-fold dilution method [Sun H et al., Nat Commun 11, 5263 (2020)], cefdinir at different concentration was added into fresh LB medium (or trypticase soy broth medium with 5% defibrinated horse blood) containing different concentration of human lysozyme in 96-wells plate. After well mixed, about 20 μl of 1.0×10^7 CFU/ml logarithmic cultures of MRSA, MRSE, Streptococcus pyogenes (S. py), Streptococcus mutans (S. mu), Enterococcus faecium (E. faecium), Enterococcus faecalis (E. faecalis) and Corynebacterium pseudodiphtheriticum (C. ps) were added into each well of the plate und co-incubated overnight, Wells without any drugs served as growth controls, and wells without bacteria served as background controls. The inhibition ratio was calculated as [1−(ODsample−ODbackground)/(ODcontrol−ODbackground)]×100%. Besides, bacterial growth inhibition was also monitored by serial dilution in LB-agar plate. CFU was counted by performing 10-fold serial dilution in PBS and then spotting 10 μl of dilutions in LB-agar plate. The MIC was determined as the lowest concentration of a drug that could inhibit the […] growth of microorganism by both visual CFU and OD600 using a microtiter plate reader. Fractional inhibitory concentration (FIC) and fractional inhibitory concentration index (FICI) values were determined by standard method. […]

[13] = test system: MRSE; assay: Check board broth micro-dilution assay, tedizolid phosphate with lysozyme; format: cell-based, Staphylococcus epidermis; conditions: lysozyme alone
Experimental: as §1

Molecule: poly-l-lysine
- FICI ([1]; poly-l-lysine in place of lysozyme, combined with tedizolid phosphate): 0.375

Molecule: CC(=O)OC[C@H]1O[C@@H]([S-])[C@H](OC(C)=O)[C@@H](OC(C)=O)[C@@H]1OC(C)=O.CCP(CC)CC.[Au+] [auranofin, Auranofin]
- IC50 of auranofin on ARPE-19 cells [2]: 2.21±0.34 μg/ml
- bacterial load ([3]; 0.34 μg/ml auranofin + 0.5 mg/ml lysozyme, reduced from the level of 10^10): 10^5 CFU/ml
- inhibition effect on growth of MRSA at exponential phase [3]: few inhibitions effect
- ATP level [4]: significantly reduced
- CopZ over-expression [5]: 21 fold
- N-acetylmuramoyl-L-alanine amidase domain (Q2G222) overexpression [5]: ~1.84 fold
- protein level of walR (Q7A8E1) [5]: ~0.68 fold
- biofilm-based absorbance at 590 nm, pre-biofilm stage ([6]; 0.34 μg/ml auranofin + 0.5 mg/ml lysozyme): biofilm had been absolutely removed
- biofilm-based absorbance at 590 nm, post-biofilm stage ([6]; auranofin + lysozyme combination after biofilm had appeared): the decrease was not observed after biofilm had appeared
- gene mutation frequency ([7]; 0.34 μg/ml auranofin + 2 mg/ml lysozyme): ≤ 1×10^−9
- gene mutation frequency ([7]; 0.34 μg/ml auranofin without lysozyme): ≥ 9×10^−6
- drop of bacterial load in infected ARPE-19 cells [8]: 10^2 fold
- bacterial load in infected ARPE-19 cells ([8]; MOI 5): 10^5 CFU/ml
- development of auranofin resistance [9]: did suppress the development of auranofin resistance
- fractional inhibitory concentration index (FICI) ([10]; auranofin in combination with lysozyme): 0.266

Molecule: lysozyme: Human lysozyme (C-type) supplied by Sigma-Aldrich; hydrolase used in combination with the drugs
- minimum inhibitory concentration (MIC) of human lysozyme ([11]; lysozyme alone): > 150 mg/mL and 150 mg/mL
- drop of MIC value of lysozyme ([11]; with cefdinir at ca. 0.75 μg/ml): 1200 folds
- MIC value of lysozyme ([11]; with cefdinir at ca. 0.75 μg/ml (1.89 μM)): 0.125 mg/mL
- inhibition effect on growth of MRSA at exponential phase [3]: few inhibitions effect
- minimum inhibitory concentration (MIC) of human lysozyme [12]: > 150 mg/mL
- minimum inhibitory concentration (MIC) of human lysozyme ([1]; lysozyme alone): > 150 mg/mL
- reduction of the MIC value of lysozyme ([1]; with tedizolid phosphate at ca. 0.19 μg/ml): 1200 fold
- MIC value of lysozyme ([1]; with tedizolid phosphate at ca. 0.19 μg/ml (0.4 μM, 0.004 MIC)): 0.1235 mg/mL
- minimum inhibitory concentration (MIC) of human lysozyme [13]: > 150 mg/mL
- lysozyme level to which MRSA is sensitive (MIC) ([10]; 0.17 μg/ml auranofin used in combination): 1.0 mg/mL
- lysozyme level to which MRSA is sensitive (MIC) ([10]; lysozyme alone): ≥ 150 mg/mL

Molecule: N#CC(C#N)=NNc1cccc(Cl)c1 [CCCP, Carbonyl cyanide m-chlorophenyl hydrazone]
- effect of ion-targeting inhibitor on FICI of tedizolid phosphate/lysozyme combination ([1]; cells incubated with the inhibitor): significant increase in FICI

Molecule: CCN(CC)c1nc2c(S(=O)(=O)c3ccc(Cl)cc3)nnn2c2cc(OC)c(OC)cc12 [Targocil]
- effect of LTA/WTA synthesis inhibitor on cefdinir/lysozyme combination (FICI) [11]: abolish the combination effect

Molecule: O=C(COC(=O)Cc1coc2ccc3ccccc3c12)Nc1nnc(-c2ccccc2)o1 [LtaS-IN-1]
- effect of LTA/WTA synthesis inhibitor on cefdinir/lysozyme combination (FICI) [11]: abolish the combination effect
